Laboratory results taken from patent publication US11192899B2 (MERCK PATENT GMBH, priority 2017, dated 2021).
Like-named read-outs stand apart in the source and are kept apart here.

Key:
A2B receptors [1] = biological target: T1, A2B receptors (Homo sapiens, UniProt P29275); details: cited from earlier work
T1 sequence (P29275 1-332): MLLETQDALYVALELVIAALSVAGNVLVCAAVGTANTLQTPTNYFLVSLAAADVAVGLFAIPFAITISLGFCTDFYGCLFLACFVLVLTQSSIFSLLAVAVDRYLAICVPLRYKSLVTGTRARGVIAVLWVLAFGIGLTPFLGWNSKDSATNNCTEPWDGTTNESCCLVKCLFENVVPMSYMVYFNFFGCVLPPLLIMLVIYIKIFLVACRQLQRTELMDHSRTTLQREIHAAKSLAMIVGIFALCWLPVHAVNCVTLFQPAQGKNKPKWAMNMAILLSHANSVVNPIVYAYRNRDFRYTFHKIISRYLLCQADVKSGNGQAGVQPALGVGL

mouse Pan T cells = assay: rescue of cytokine (IL-2, IFN-γ) secretion of CD3/CD28-activated mouse Pan T cells inhibited by CGS-21680; type: cell-based; details: for IC50: Mus musculus, T-cell
Description: Adenosine (Ado) in tumor microenvironment can inhibit T cell activity by signaling through A2A receptors and suppress cytokine secretion by T cells. […] Potential A2A antagonists or A2A/A2B dual antagonists can rescue T cells from this inhibition. Herein, we describe the in vitro system we established using Pan T cells from mouse spleens to screen potential A2A antagonists or A2A/A2B dual antagonists for their activity. The method described involves the use of CD3/CD28 pre-coated beads to stimulate Pan T cells purified from mouse splenocytes, combined with the addition of A2A agonist along with potential A2A or A2A/A2B dual antagonists to evaluate potentiation of T cell cytokine production.
Briefly, mouse Pan T cells are purified from spleens of BALB/c mice using Pan T cell isolation kit Mouse II (MACS Miltenyi biotech Cat #Order no. 130-095-130) according to manufacturer's protocol. The purified T cells are seeded in Nunc™ 96-Well Polystyrene Round Bottom Microwell Plates in RPMI medium with 10% heat inactivated fetal bovine serum. The cells are rested at 37° C. for 1 h before activating with CD3/CD28 pre-coated beads (Dynabeads™ Mouse T-Activator CD3/CD28; Cat #11456D). After 30 min the cells are treated with varying doses of test antagonist(s). […] After 24 h incubation IL-2 levels in the supernatants and after 48 h incubation IFN-γ levels in the supernatants are measured by ELISAs according to manufacturer's protocol (R&D systems Cat #DY402 (IL-2); DY485 (IFN-γ)). Once the concentrations are calculated, the difference of cytokine concentration of DMSO control and agonist alone control is calculated (called Δ) and the percentage of rescue by each concentration of antagonist is calculated by using Microsoft Excel. These percentages of cytokine rescue in a dose dependent manner of antagonist is plotted in GraphPad Prism software and IC50 is calculated.

[2] = pharmacokinetics in mouse after single intravenous and oral administration; details: for Feces iv [%]: iv @ 0.2, excretion as % of dose; for Vd / clearance / half-life / Cmax: female, mouse; for Vd / clearance / half-life: 0.2 mg/kg; for Cmax: 1 mg/kg
Description: Female Wistar rats/mice (n=6) received either a single intravenous (bolus) injection or an oral administration (by gavage) of the tested compound.
The concentrations of the compounds in plasma, feces were quantified using an UPLC method with tandem mass spectrometric detection (LC-MS/MS) previously developed at the ‘Institute of Drug Metabolism and Pharmacokinetics’. The LCMS/MS system consisted of a Waters Acquity UPLC coupled to an AB Sciex mass spectrometer API 5500 Q-trap. […] The detection of the compounds was performed using multiple reaction monitoring in the positive ionization mode. Plasma samples were spiked with internal standard (20 μl) and the analyte was extracted from the matrix using tertiary-butyl methyl ether (tBME). The organic phase was evaporated to dryness under a stream of nitrogen. The residue was dissolved in acetonitrile/0.1% formic acid for LC-MS/MS analysis. Feces samples were homogenized with 4-times their volume of an ethanol/water mixture (4:1, v/v). Aliquots of the aqueous-ethanolic extracts were spiked with internal standard, diluted with acetonitrile/water (1:1, v/v) and directly injected into the LC-MS/MS system.
Pharmacokinetic parameters Cmax and tmax were taken from the observed data. […] AUC values were calculated by non-compartmental analysis using the linear up/log down method. Numerical data for mean plasma concentrations and derived pharmacokinetic parameters were rounded to 3 significant digits for presentation.

A2B receptors [3] = biological target: T1, A2B receptors; assay: cAMP HTRF functional assay, recombinant HEK293 cells expressing human A2B receptor, agonist NECA; type: cell-based; set-up: expressed in transfected cells; host or cells: HEK293
Description: (§1) The functional activities of human A2A, A2B, A1 and A3 receptors were determined by quantification of cAMP, being the second messenger for adenosine receptors.
(§2) Obtained raw data were normalized against the inhibitor control and the neural control (DMSO) and the normalized data were fitted using GeneData software.

human A3 receptor = biological target: T2, human A3 receptor (Homo sapiens, UniProt P0DMS8); assay: cAMP HTRF functional assay, recombinant CHO cells expressing human A3 receptor, forskolin and agonist IB-MECA; type: cell-based
T2 construct: expressed in transfected cells; host or cells: CHO
T2 sequence (P0DMS8 1-318): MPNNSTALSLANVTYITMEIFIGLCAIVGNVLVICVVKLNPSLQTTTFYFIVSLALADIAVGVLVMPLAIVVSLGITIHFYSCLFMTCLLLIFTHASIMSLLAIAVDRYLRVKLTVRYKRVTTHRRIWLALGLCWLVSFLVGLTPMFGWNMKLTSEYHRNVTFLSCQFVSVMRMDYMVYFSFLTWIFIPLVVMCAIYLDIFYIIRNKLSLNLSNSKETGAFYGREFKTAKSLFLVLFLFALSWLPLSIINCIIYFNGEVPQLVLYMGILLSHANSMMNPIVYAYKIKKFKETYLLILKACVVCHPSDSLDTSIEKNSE
Description: as §1
(§3) For human A1 and A3 receptors, recombinant CHO cells, expressing either A1 or A3-receptor, were used. As both receptors couple to Gi proteins, the assay protocol was adapted:
(§4) Cells were seeded into 384-well plates, forskolin, test compounds and agonists (CPA for A1- and IB-MECA for A3-receptor) were added. After 30 min incubation, HTRF reagents (cAMP dynamic 2, Cis Bio) were added and the cellular cAMP levels were determined using the ENVISION (Perkin Elmer) plate reader.
as §2

human A2A receptor = biological target: T3, human A2A receptor (Homo sapiens, UniProt P29274); assay: cAMP HTRF functional assay, recombinant HEK293 cells expressing human A2A receptor, agonist NECA; type: cell-based
T3 construct: expressed in transfected cells; host or cells: HEK293
Description: as §1, §2

human A1 receptor = biological target: T4, human A1 receptor (Homo sapiens, UniProt P30542); assay: cAMP HTRF functional assay, recombinant CHO cells expressing human A1 receptor, forskolin and agonist CPA; type: cell-based
T4 construct: expressed in transfected cells; host or cells: CHO
T4 sequence (P30542 1-326): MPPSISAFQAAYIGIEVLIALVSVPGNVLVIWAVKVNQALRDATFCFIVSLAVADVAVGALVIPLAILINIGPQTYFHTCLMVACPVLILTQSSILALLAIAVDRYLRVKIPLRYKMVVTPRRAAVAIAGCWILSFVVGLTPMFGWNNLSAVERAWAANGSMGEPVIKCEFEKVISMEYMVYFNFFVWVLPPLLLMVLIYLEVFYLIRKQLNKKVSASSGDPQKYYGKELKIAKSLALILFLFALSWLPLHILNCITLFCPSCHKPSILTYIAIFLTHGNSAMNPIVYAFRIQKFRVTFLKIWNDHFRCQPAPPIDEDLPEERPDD
Description: as §1, §3, §4, §2

[4] = 24 h, read-out: Mouse T-Cell IL-2

T3 sequence (P29274 whole entry): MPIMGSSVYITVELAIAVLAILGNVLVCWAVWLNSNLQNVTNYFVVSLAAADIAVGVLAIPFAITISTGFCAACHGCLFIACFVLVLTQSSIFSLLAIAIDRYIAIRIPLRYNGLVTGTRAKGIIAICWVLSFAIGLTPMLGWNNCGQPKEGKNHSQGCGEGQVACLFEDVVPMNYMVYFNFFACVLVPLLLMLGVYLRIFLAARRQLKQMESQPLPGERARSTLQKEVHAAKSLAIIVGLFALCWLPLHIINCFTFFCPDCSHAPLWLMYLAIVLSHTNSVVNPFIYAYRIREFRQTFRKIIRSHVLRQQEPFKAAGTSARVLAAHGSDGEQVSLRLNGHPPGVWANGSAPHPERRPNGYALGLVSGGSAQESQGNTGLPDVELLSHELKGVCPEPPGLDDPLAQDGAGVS

SMILES | affinity for A2B receptors (A2B receptors [1]) | Feces iv [%] ([2]; PK data in mouse) | IC50 (A2B receptors [3]) [nM] | IC50 (human A3 receptor) [nM] | IC50 (human A2A receptor) [nM] | IC50 (human A1 receptor) [nM] | Vd ([2]; plasma, iv) [L/kg] | clearance ([2]; plasma, iv) [mL/min/kg] | half-life ([2]; plasma, iv) [h] | Cmax ([2]; plasma, iv) [ng/mL] | other results
CCCn1c(=O)c2[nH]c(-c3ccc(S(=O)(=O)O)cc3)nc2n(CCC)c1=O [DPSPX, 1,3-dipropyl-8-sulphophenylxanthine] | mid to high nM range |  |  |  |  |  |  |  |  |  | 
COc1ccc(N2CCOCC2)c2sc(NC(=O)N3CCC(C)(O)CC3)nc12 [Tozadenant, reference compound] |  | 23 @ 0.2% |  |  |  |  |  |  |  |  | Mouse IFN-γ [nM] (mouse Pan T cells; IFN-γ rescue, 48 h, CGS-21680 1 μM, BALB/c Pan T cells): NA (< 50% rescue); Mouse T-Cell IL-2 [nM] (mouse Pan T cells; IL-2 rescue, 24 h, CGS-21680 1 μM, BALB/c Pan T cells): NA (< 50% rescue); CL ([2]; PK data in mouse, iv): 1478 mL/min/kg; Vss [L/kg] ([2]; PK data in mouse, iv): 2,03 L/kg; t1/2 [h] ([2]; PK data in mouse, iv): 0,184 h; CMax (iv) @ 1 mg/kg ([2]; PK data in mouse, iv): 337 ng/mL
O=c1[nH]c(=O)c2nc3ccccc3nc2[nH]1 [alloxazine, 2,4-dioxobenzopteridine] | mid to high nM range |  |  |  |  |  |  |  |  |  | 
COc1ccc(-c2ccccc2)c2ncc(NC(=O)N3CCC(C)(O)CC3)nc12 [compound 2, 4-Hydroxy-4-methyl-piperidine-1-carboxylic acid (8-methoxy-5-phenyl-quinoxalin-2-yl)-amide] |  | 12.5 @ 0.2% | > 1000 | > 1000 | < 100 | > 1000 | 1.13 | 5.65 | 2.37 | 732 | IC50 (mouse Pan T cells; [4]): 400 nM; IC50 (mouse Pan T cells; 48 h, read-out: Mouse IFN-γ): 600 nM
COc1ccc(C2CCOCC2)c2ncc(NC(=O)N3CCC(C)(O)CC3)nc12 [compound 5] |  | 4.2 @ 0.2% | > 1000 | > 1000 | < 100 | > 1000 | 1.24 | 19.7 |  |  | CMax (iv) @ 1 mg/kg ([2]; PK data in mouse, iv): 908 ng/mL; half-life ([2]; in vivo, iv): 0.92 h
C#CCC1(O)CCN(C(=O)Nc2cnc3c(C4CCOCC4)ccc(OC)c3n2)CC1 [compound 10] |  | 1.8 @ 0.2% | > 1000 | > 1000 | < 100 | < 1000 | 0.811 | 18.2 | 0.55 | 1090 | 
COc1ncc(-c2ccccc2)c2ncc(NC(=O)N3CCC(C)(O)CC3)nc12 [compound 27, 4-Hydroxy-4-methyl-piperidine-1-carboxylic acid (5-methoxy-8-phenyl-pyrido[3,4-b]pyrazin-3-yl)-amide] |  | 6.2 @ 0.2% | > 1000 | > 1000 | < 100 | < 1000 | 0.82 | 3.78 | 2.56 | 983 | IC50 (mouse Pan T cells; [4]): 375 nM; IC50 (mouse Pan T cells; 48 h, read-out: Mouse IFN-γ): 333 nM
COc1ncc(-c2ccc(OC)c3nc(NC(=O)C4CC4)cnc23)cn1 [compound 156, N-[8-methoxy-5-(2-methoxypyrimidin-5-yl)quinoxalin-2-yl]cyclopropanecarboxamide] |  |  | > 1000 | > 1000 | < 100 | < 1000 |  |  |  |  | 
CCCn1c(=O)[nH]c(=O)c2[nH]cnc21 [enprofylline, 3-n-propylxanthine] | mid to high nM range |  |  |  |  |  |  |  |  |  | 
